In PubChem BioAssay AID248 (DTP/NCI, 2004):
Values joined by “and” are separate entries in the source; they are usually repeats but may differ in a detail not shown here. Equal entries are not always repeated. Inconclusive results and toxic doses are left out. No stated cut-off is given here; in the data, active means T/C of 150% or more; inactive means T/C below 125%.

System: L1210 leukemia ip in BDF1 mice, survival T/C
Test: NCI In Vivo Anticancer Drug Screen. Data for tumor model L1210 Leukemia (intraperitoneal) in B6D2F1 (BDF1) mice
Settings: endpoint: mean survival time, higher = longer survival
Outline: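 Survival endpoint. Drug-treated group vs vehicle group, expressed as T divided by C. Tumor passaged by transplantation.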

[1] = dose: 100.0 mg/kg/injection, schedule: Q04DX003 (ip), vehicle: Klucel (hydroxypropylcellulose) (HPC)
[2] = dose: 200.0 mg/kg/injection, schedule: Q04DX003 (ip), vehicle: Klucel (hydroxypropylcellulose) (HPC)
[3] = dose: 400.0 mg/kg/injection, schedule: Q04DX003 (ip), vehicle: Klucel (hydroxypropylcellulose) (HPC)
[4] = dose: 100.0 mg/kg/injection, schedule: Q01DX001 (ip), vehicle: saline
[5] = dose: 100.0 mg/kg/injection, schedule: Q01DX009 (ip), vehicle: saline
[6] = dose: 200.0 mg/kg/injection, schedule: Q01DX001 (ip), vehicle: saline
[7] = dose: 200.0 mg/kg/injection, schedule: Q01DX009 (ip), vehicle: saline
[8] = dose: 400.0 mg/kg/injection, schedule: Q01DX001 (ip), vehicle: saline
[9] = dose: 100.0 mg/kg/injection, schedule: Q04DX003 (ip), vehicle: saline with Tween-80
[10] = dose: 200.0 mg/kg/injection, schedule: Q04DX003 (ip), vehicle: saline with Tween-80
[11] = dose: 400.0 mg/kg/injection, schedule: Q04DX003 (ip), vehicle: saline with Tween-80
[12] = dose: 50.0 mg/kg/injection, schedule: Q01DX009 (ip), vehicle: saline
[13] = dose: 100.0 mg/kg/injection, schedule: Q01DX009 (ip), vehicle: saline with Tween-80
[14] = dose: 200.0 mg/kg/injection, schedule: Q01DX009 (ip), vehicle: saline with Tween-80
[15] = dose: 400.0 mg/kg/injection, schedule: Q01DX009 (ip), vehicle: saline with Tween-80
[16] = dose: 100.0 mg/kg/injection, schedule: Q01DX001 (ip), vehicle: Klucel (hydroxypropylcellulose) (HPC)
[17] = dose: 50.0 mg/kg/injection, schedule: Q01DX009 (ip), vehicle: saline with Tween-80
[18] = dose: 100.0 mg/kg/injection, schedule: Q04DX003 (ip), vehicle: saline
[19] = dose: 200.0 mg/kg/injection, schedule: Q04DX003 (ip), vehicle: saline
[20] = dose: 400.0 mg/kg/injection, schedule: Q04DX003 (ip), vehicle: saline

Measured: T/C

CC(=O)OC1CCC2(C)C(=CC=C3C2CCC2(C)C3CCC2C(C)/C=C/C(C)C(C)C)C1 (stereo not drawn)
inactive: dose: 100.0 mg/kg/injection, schedule: Q04DX002 (sc), vehicle: saline with Tween-80 97 % of control | [1] 93 % of control | dose: 200.0 mg/kg/injection, schedule: Q04DX002 (sc), vehicle: saline with Tween-80 97 % of control | [2] 96 % of control | dose: 400.0 mg/kg/injection, schedule: Q04DX002 (sc), vehicle: saline with Tween-80 97 % of control | [3] 93 % of control

CCNc1ccc(F)cc1[N+](=O)[O-]
inactive: dose: 100.0 mg/kg/injection, schedule: Q01DX009 (ip), vehicle: saline sonified 110 % of control | [1] 103 % of control | dose: 200.0 mg/kg/injection, schedule: Q01DX009 (ip), vehicle: saline sonified 102 % of control | [2] 104 % of control | dose: 400.0 mg/kg/injection, schedule: Q01DX009 (ip), vehicle: saline sonified 102 % of control | [3] 97 % of control

Cc1ccc(N2CCCC(=O)C(O)CCC2)cc1 (stereo not drawn)
inactive: [4] 98 % of control | [5] 100 % of control | [6] 90 % of control | [7] 96 % of control | dose: 300.0 mg/kg/injection, schedule: Q01DX009 (ip), vehicle: saline 116 % of control | [8] 90 % of control

Cc1ccc(S(=O)(=O)OCCOCCOS(=O)(=O)c2ccc(C)cc2)cc1
inactive: [9] 100 % of control | [10] 104 % of control | [11] 100 % of control

CC(C)(C)c1ccc(S(=O)(=O)C/C=C/COc2ccccc2)cc1
inactive: dose: 75.0 mg/kg/injection, schedule: Q01DX009 (ip), vehicle: Klucel (hydroxypropylcellulose) (HPC) 91 % of control | dose: 150.0 mg/kg/injection, schedule: Q01DX009 (ip), vehicle: Klucel (hydroxypropylcellulose) (HPC) 98 % of control

C[N+](C)(C)CN1C(=O)c2ccccc2C1=O
inactive: [12] 101 % of control | [5] 97 % of control | [7] 88 % of control

Cn1c(N)c(N=CC2CC=CCC2)c(=O)n(C)c1=O (stereo not drawn)
inactive: dose: 50.0 mg/kg/injection, schedule: Q01DX001 (ip), vehicle: other 103 % of control | dose: 100.0 mg/kg/injection, schedule: Q01DX001 (ip), vehicle: other 97 % of control | dose: 200.0 mg/kg/injection, schedule: Q01DX001 (ip), vehicle: other 92 % of control | dose: 400.0 mg/kg/injection, schedule: Q01DX001 (ip), vehicle: other 97 % of control

CCCNC(C)C(=O)c1ccccc1 (stereo not drawn)
inactive: dose: 12.5 mg/kg/injection, schedule: Q01DX009 (ip), vehicle: saline 93 % of control | dose: 25.0 mg/kg/injection, schedule: Q01DX009 (ip), vehicle: saline 97 % of control | [12] 108 % of control | [5] 86 % of control

COc1cc(/C=C2\C(O)C3CCN2CC3)cc(OC)c1OC (stereo not drawn)
inactive: dose: 100.0 mg/kg/injection, schedule: Q04DX002 (ip), vehicle: saline 115 % of control | dose: 200.0 mg/kg/injection, schedule: Q04DX002 (ip), vehicle: saline 118 % of control

CCC(Cl)C(=O)Nc1ccccc1 (stereo not drawn)
inactive: dose: 50.0 mg/kg/injection, schedule: Q01DX001 (ip), vehicle: saline 96 % of control | [4] 108 % of control | [6] 102 % of control | [8] 104 % of control

CCC(=O)c1ccc(OCC(O)CN2CCN(c3ccccc3Cl)CC2)cc1 (stereo not drawn)
inactive: dose: 100.0 mg/kg/injection, schedule: Q01DX001 (ip), vehicle: saline with Tween-80 101 % of control | [13] 95 % of control | dose: 200.0 mg/kg/injection, schedule: Q01DX001 (ip), vehicle: saline with Tween-80 104 % of control | [14] 95 % of control | dose: 400.0 mg/kg/injection, schedule: Q01DX001 (ip), vehicle: saline with Tween-80 102 % of control | [15] 88 % of control

OC1C2COc3nc4ccccc4n3C(O2)C1O (stereo not drawn)
inactive: [4] 97 % of control | [6] 95 % of control

CC(C)C12CCC(C)(O1)C(O)C2O (stereo not drawn)
inactive: [4] 111 % of control | [6] 104 % of control | [8] 106 % of control

C[N+](C)(C)N=C1CCCCC1
inactive: [4] 104 % of control | [6] 104 % of control

COc1ccc(/C=C2\N=C(c3cc(OC)c(OC)c(OC)c3)OC2=O)cc1
inactive: dose: 100.0 mg/kg/injection, schedule: Q04DX002 (ip), vehicle: Klucel (hydroxypropylcellulose) (HPC) 95 % of control | dose: 200.0 mg/kg/injection, schedule: Q04DX002 (ip), vehicle: Klucel (hydroxypropylcellulose) (HPC) 98 % of control | dose: 400.0 mg/kg/injection, schedule: Q04DX002 (ip), vehicle: Klucel (hydroxypropylcellulose) (HPC) 88 % of control

NC(N)=Nc1ccc(C(=O)O)cc1
inactive: [13] 107 % of control | [14] 103 % of control

C(CC1CCNCC1)CC1CCNCC1 (tested in a mixture with another compound)
inactive: [4] 94 % of control

CN(CCCN1C(=O)c2ccccc2C1=O)c1ccc(N=O)cc1
inactive: dose: 25.0 mg/kg/injection, schedule: Q01DX001 (ip), vehicle: Klucel (hydroxypropylcellulose) (HPC) 101 % of control | dose: 50.0 mg/kg/injection, schedule: Q01DX001 (ip), vehicle: Klucel (hydroxypropylcellulose) (HPC) 95 % of control | [16] 92 % of control and 91 % of control

CC12CCCCC1=CC(O)CC2 (stereo not drawn)
inactive: [17] 98 % of control | [13] 91 % of control | [14] 94 % of control

O=S(=O)(O)CCN(CCO)CCO
inactive: [5] 98 % of control | [18] 97 % of control | [7] 101 % of control | [19] 101 % of control | dose: 400.0 mg/kg/injection, schedule: Q01DX009 (ip), vehicle: saline 109 % of control | [20] 94 % of control

Nc1nc2ncc(CN(C(=O)C(F)(F)F)c3ccc(C(=O)NC(CCC(=O)O)C(=O)O)cc3)nc2c(=O)[nH]1 (stereo not drawn)
inactive: [16] 100 % of control | dose: 200.0 mg/kg/injection, schedule: Q01DX001 (ip), vehicle: Klucel (hydroxypropylcellulose) (HPC) 107 % of control | dose: 400.0 mg/kg/injection, schedule: Q01DX001 (ip), vehicle: Klucel (hydroxypropylcellulose) (HPC) 111 % of control

Clc1ccccc1OCC1CO1 (stereo not drawn)
inactive: [13] 93 % of control | [9] 98 % of control | [14] 100 % of control | [10] 98 % of control | [15] 97 % of control | [11] 103 % of control

CCO/C=C1\SC(=S)N(CCc2ccc(OC)c(OC)c2)C1=O
inactive: dose: 100.0 mg/kg/injection, schedule: Q01DX009 (ip), vehicle: Klucel (hydroxypropylcellulose) (HPC) 94 % of control | [1] 102 % of control | dose: 200.0 mg/kg/injection, schedule: Q01DX009 (ip), vehicle: Klucel (hydroxypropylcellulose) (HPC) 93 % of control | [2] 102 % of control | dose: 400.0 mg/kg/injection, schedule: Q01DX009 (ip), vehicle: Klucel (hydroxypropylcellulose) (HPC) 103 % of control | [3] 102 % of control

Cc1ccc(C(=O)O)cc1S(=O)(=O)F
inactive: [13] 96 % of control | [9] 107 % of control | [14] 96 % of control | [10] 91 % of control | [15] 90 % of control | [11] 91 % of control

O=[N+]([O-])c1cc(Cl)cc(Cl)c1O
inactive: dose: 12.5 mg/kg/injection, schedule: Q01DX009 (ip), vehicle: Klucel (hydroxypropylcellulose) (HPC) 91 % of control | dose: 12.5 mg/kg/injection, schedule: Q04DX002 (ip), vehicle: Klucel (hydroxypropylcellulose) (HPC) 90 % of control | dose: 25.0 mg/kg/injection, schedule: Q01DX009 (ip), vehicle: Klucel (hydroxypropylcellulose) (HPC) 94 % of control | dose: 25.0 mg/kg/injection, schedule: Q04DX002 (ip), vehicle: Klucel (hydroxypropylcellulose) (HPC) 97 % of control | dose: 50.0 mg/kg/injection, schedule: Q04DX002 (ip), vehicle: Klucel (hydroxypropylcellulose) (HPC) 94 % of control

NCCCN
inactive: [18] 97 % of control | [19] 98 % of control | [20] 98 % of control

Nc1nc(N)c2nnn(C3CC(O)C(CO)C3)c2n1 (stereo not drawn)
inactive: [17] 89 % of control | [13] 96 % of control | [14] 92 % of control
